Results: PubChem BioAssay AID1963443 (Molecular Pharmacology Branch, DTP, NCI, 2024)

System: MDA-MB-231 complex spheroids, growth inhibition
Experiment: Anticancer human tumor MDA-MB-231 cell line growth inhibition [Asc];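 note: spheroids exposed to compounds for 7 days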
Settings: for IC50: curve of first compound; for viability, T/C: stronger effect = lower value
How it was run: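 Complex solid-tumor spheroids incorporating human endothelial and mesenchymal stem cells received single agents or combinations over half-log dilution ranges anchored to clinical Cmax.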

[1] = second compound 0.1 µM, first compound 0.0316 µM
[2] = second compound 0.1 µM, first compound 0.1 µM
[3] = second compound 0.1 µM, first compound 0.316 µM
[4] = second compound 0.1 µM, first compound 1 µM
[5] = second compound 0.1 µM, first compound 3.16 µM
[6] = second compound 0.1 µM, first compound 10 µM
[7] = second compound 0.316 µM, first compound 0.0316 µM
[8] = second compound 0.316 µM, first compound 0.1 µM
[9] = second compound 0.316 µM, first compound 0.316 µM
[10] = second compound 0.316 µM, first compound 1 µM
[11] = second compound 0.316 µM, first compound 3.16 µM
[12] = second compound 0.316 µM, first compound 10 µM
[13] = second compound 1 µM, first compound 0.0316 µM
[14] = second compound 1 µM, first compound 0.1 µM
[15] = second compound 1 µM, first compound 0.316 µM
[16] = second compound 1 µM, first compound 1 µM
[17] = second compound 1 µM, first compound 3.16 µM
[18] = second compound 1 µM, first compound 10 µM
[19] = second compound 3.16 µM, first compound 0.0316 µM
[20] = second compound 3.16 µM, first compound 0.1 µM
[21] = second compound 3.16 µM, first compound 0.316 µM
[22] = second compound 3.16 µM, first compound 1 µM
[23] = second compound 3.16 µM, first compound 3.16 µM
[24] = second compound 3.16 µM, first compound 10 µM
[25] = second compound 10 µM, first compound 0.0316 µM
[26] = second compound 10 µM, first compound 0.1 µM
[27] = second compound 10 µM, first compound 0.316 µM
[28] = second compound 10 µM, first compound 1 µM
[29] = second compound 10 µM, first compound 3.16 µM
[30] = second compound 10 µM, first compound 10 µM

Structure (SMILES): C=C(F)C(=O)N1CCN(c2nc(OCC3CCCN3C)nc3c2CCN(c2cccc4cccc(Cl)c24)C3)CC1CC#N (stereo not given) + Cc1c(S(C)(=O)=O)c(-c2cc(F)cc(N3CCN(c4ccc(NS(=O)(=O)c5ccc(NC(CCN6CCC(C(=O)OCCCP(=O)(O)O)CC6)CSc6ccccc6)c(S(=O)(=O)C(F)(F)F)c5)cc4)CC3)c2)c(-c2ccc(Cl)cc2)n1C(C)C
- IC50 (second compound 0.1 µM): 2290 nM
- IC50 (second compound 0.316 µM): 2110 nM
- IC50 (second compound 1 µM): 1850 nM
- IC50 (second compound 3.16 µM): 1740 nM
- IC50 (second compound 10 µM): 1710 nM
- viability, T/C [1]: 92.2%
- viability, T/C [2]: 97.2%
- viability, T/C [3]: 97.2%
- viability, T/C [4]: 101%
- viability, T/C [5]: 31.6%
- viability, T/C [6]: 0.12%
- viability, T/C [7]: 106%
- viability, T/C [8]: 108%
- viability, T/C [9]: 106%
- viability, T/C [10]: 109%
- viability, T/C [11]: 18.6%
- viability, T/C [12]: 0.09%
- viability, T/C [13]: 103%
- viability, T/C [14]: 100%
- viability, T/C [15]: 97.5%
- viability, T/C [16]: 97.4%
- viability, T/C [17]: 8.81%
- viability, T/C [18]: 0.09%
- viability, T/C [19]: 95.8%
- viability, T/C [20]: 93%
- viability, T/C [21]: 94.9%
- viability, T/C [22]: 91.8%
- viability, T/C [23]: 4.45%
- viability, T/C [24]: 0.09%
- viability, T/C [25]: 104%
- viability, T/C [26]: 100%
- viability, T/C [27]: 99.7%
- viability, T/C [28]: 91.3%
- viability, T/C [29]: 2.9%
- viability, T/C [30]: 0.14%

Structure (SMILES): C=CC(=O)N1CCN(c2nc(=O)n(-c3c(C)ccnc3C(C)C)c3nc(-c4c(O)cccc4F)c(F)cc23)C(C)C1 (stereo not given) + Cc1c(S(C)(=O)=O)c(-c2cc(F)cc(N3CCN(c4ccc(NS(=O)(=O)c5ccc(NC(CCN6CCC(C(=O)OCCCP(=O)(O)O)CC6)CSc6ccccc6)c(S(=O)(=O)C(F)(F)F)c5)cc4)CC3)c2)c(-c2ccc(Cl)cc2)n1C(C)C
- IC50 (second compound 0.1 µM): > 10000 nM
- IC50 (second compound 0.316 µM): > 10000 nM
- IC50 (second compound 1 µM): > 10000 nM
- IC50 (second compound 3.16 µM): > 10000 nM
- IC50 (second compound 10 µM): > 10000 nM
- viability, T/C [1]: 99.8%
- viability, T/C [2]: 94.4%
- viability, T/C [3]: 96.7%
- viability, T/C [4]: 102%
- viability, T/C [5]: 105%
- viability, T/C [6]: 98.4%
- viability, T/C [7]: 106%
- viability, T/C [8]: 112%
- viability, T/C [9]: 111%
- viability, T/C [10]: 117%
- viability, T/C [11]: 116%
- viability, T/C [12]: 116%
- viability, T/C [13]: 108%
- viability, T/C [14]: 106%
- viability, T/C [15]: 100%
- viability, T/C [16]: 111%
- viability, T/C [17]: 109%
- viability, T/C [18]: 96.6%
- viability, T/C [19]: 104%
- viability, T/C [20]: 96.8%
- viability, T/C [21]: 89.1%
- viability, T/C [22]: 97.5%
- viability, T/C [23]: 105%
- viability, T/C [24]: 91.2%
- viability, T/C [25]: 96.6%
- viability, T/C [26]: 93.7%
- viability, T/C [27]: 93.3%
- viability, T/C [28]: 96.6%
- viability, T/C [29]: 97.1%
- viability, T/C [30]: 83.4%

Structure (SMILES): CCN1C(C(=O)NC23CCC(C(=O)O)(CC2)CC3)C(c2cccc(Cl)c2F)C2(C(=O)Nc3cc(Cl)ccc32)C12CCCCC2 (stereo not given) + Cc1c(S(C)(=O)=O)c(-c2cc(F)cc(N3CCN(c4ccc(NS(=O)(=O)c5ccc(NC(CCN6CCC(C(=O)OCCCP(=O)(O)O)CC6)CSc6ccccc6)c(S(=O)(=O)C(F)(F)F)c5)cc4)CC3)c2)c(-c2ccc(Cl)cc2)n1C(C)C
- IC50 (second compound 0.1 µM): > 3000 nM
- IC50 (second compound 0.316 µM): > 3000 nM
- IC50 (second compound 1 µM): > 3000 nM
- IC50 (second compound 3.16 µM): > 3000 nM
- IC50 (second compound 10 µM): > 3000 nM
- viability, T/C (second compound 0.1 µM, first compound 0.00949 µM): 90%
- viability, T/C (second compound 0.1 µM, first compound 0.03 µM): 82.6%
- viability, T/C (second compound 0.1 µM, first compound 0.0949 µM): 103%
- viability, T/C (second compound 0.1 µM, first compound 0.3 µM): 103%
- viability, T/C (second compound 0.1 µM, first compound 0.949 µM): 101%
- viability, T/C (second compound 0.1 µM, first compound 3 µM): 108%
- viability, T/C (second compound 0.316 µM, first compound 0.00949 µM): 104%
- viability, T/C (second compound 0.316 µM, first compound 0.03 µM): 105%
- viability, T/C (second compound 0.316 µM, first compound 0.0949 µM): 105%
- viability, T/C (second compound 0.316 µM, first compound 0.3 µM): 106%
- viability, T/C (second compound 0.316 µM, first compound 0.949 µM): 106%
- viability, T/C (second compound 0.316 µM, first compound 3 µM): 94.9%
- viability, T/C (second compound 1 µM, first compound 0.00949 µM): 100%
- viability, T/C (second compound 1 µM, first compound 0.03 µM): 100%
- viability, T/C (second compound 1 µM, first compound 0.0949 µM): 104%
- viability, T/C (second compound 1 µM, first compound 0.3 µM): 100%
- viability, T/C (second compound 1 µM, first compound 0.949 µM): 105%
- viability, T/C (second compound 1 µM, first compound 3 µM): 82%
- viability, T/C (second compound 3.16 µM, first compound 0.00949 µM): 94.5%
- viability, T/C (second compound 3.16 µM, first compound 0.03 µM): 98.4%
- viability, T/C (second compound 3.16 µM, first compound 0.0949 µM): 92.9%
- viability, T/C (second compound 3.16 µM, first compound 0.3 µM): 91.2%
- viability, T/C (second compound 3.16 µM, first compound 0.949 µM): 93.4%
- viability, T/C (second compound 3.16 µM, first compound 3 µM): 70.8%
- viability, T/C (second compound 10 µM, first compound 0.00949 µM): 94%
- viability, T/C (second compound 10 µM, first compound 0.03 µM): 95.7%
- viability, T/C (second compound 10 µM, first compound 0.0949 µM): 93.5%
- viability, T/C (second compound 10 µM, first compound 0.3 µM): 93.7%
- viability, T/C (second compound 10 µM, first compound 0.949 µM): 83.3%
- viability, T/C (second compound 10 µM, first compound 3 µM): 57.6%
